What was measured:
Assay in all cases: Greenhouse experiments, herbicidal action (pre-/post-emergence treatment)
Format in all cases: in vivo
Settings in all cases: post-emergence rate 0.0313 and 0.0156 kg of a.S./ha, scale 0 to 100
ABUTH (velvet leaf) = system: ABUTH (velvet leaf)
Description: (§1) The culture containers used were plastic pots with loamy sand containing approximately 3.0% of humus as the substrate. The seeds of the test plants were sown separately for each species.
(§2) For the pre-emergence treatment, the active compounds, which had been suspended or emulsified in water, were applied directly after seeding by means of finely distributing nozzles. The containers were irrigated gently to promote germination and growth and subsequently covered with transparent plastic hoods until the plants had taken root. This cover causes uniform germination of the test plants unless this was not adversely affected by the active compounds.
(§3) For the post-emergence treatment, the test plants were initially grown to a height of 3 to 15 cm, depending on the habit, and then treated with the active compounds which had been suspended or emulsified in water. To this end, the test plants were either sown directly and cultivated in the same containers, or they were initially cultivated separately as seedlings and transplanted into the test containers a few days prior to the treatment. The application rate for the post-emergence treatment was 0.0313 and 0.0156 kg of a. S./ha.
(§4) The plants were kept at temperatures of 10-25° C. and 20-35° C., depending on the species. The test period extended over 2 to 4 weeks. During this time, the plants were tended, and their reaction to the individual treatments was evaluated.
(§5) Evaluation was carried out using a scale from 0 to 100. 100 means no emergence of the plants, or complete destruction of at least the above-ground parts, and 0 means no damage or normal course of growth.
(§6) The plants used in the greenhouse experiments were of the following species: […]

AMARE (redroot pigweed) = system: AMARE (redroot pigweed)
Description: as §1, §2, §3, §4, §5, §6

COMBE (dayflower) = system: COMBE (dayflower)
Description: as §1, §2, §3, §4, §5, §6

[1] = system: GALAP (catchweed bedstraw)
Description: as §1, §2, §3, §4, §5, §6

SETFA (giant foxtail) = system: SETFA (giant foxtail)
Description: as §1, §2, §3, §4, §5, §6

Measured: herbicidal activity against harmful plant

CC(C)OC(=O)c1cc(-n2c(Cl)cc(C(F)(F)F)cc2=O)c(F)cc1Cl [Example 1, Isopropyl 2-Chloro-5-[2-chloro-6-oxo-4-(trifluoromethyl)-1-(6H)-pyridinyl]-4-fluorobenzoate]
very good activity: all assays above

Source: patent publication US20030216257A1, “1-aryl-4-alkyl halide-2(1h)-pyridones and their use as herbicides” (priority 2000, published 2003)
